This is an account of results in patent publication US20140148498A1, “METHODS AND COMPOSITIONS FOR THE TREATMENT OF MARFAN SYNDROME AND ASSOCIATED DISORDERS” (THE JOHNS HOPKINS UNIVERSITY, priority 2011, published 2014).

Molecules are shown by their SMILES. Entries after “also recorded” stand apart in the source; their conditions may differ.

Assay [1] relates to AT2KO:Fbn1^C1039G/+ mice. Nature of the assay: Aortic root growth by echocardiography, 7 months of treatment, MFS mice lacking AT2. In kind it is in vivo. How it is done:
(§1) A head-to-head comparison of ACEi versus ARBs was performed. Fbn1^C1039G/+ mice and WT littermates were treated with hemodynamically equivalent doses (FIG. 8) of either the ACEi enalapril (10 to 15 mg/kg of body weight per day) or the ARB losartan (40 to 60 mg/kg per day) (R. D. Patten et al., Clin. Sci 104, 109 (2003)), beginning at 8 weeks of age, and were assessed with serial echocardiograms. […] It is noteworthy that losartan reduced aortic root growth in Fbn1^C1039G/+ mice, but had no effect in WT littermates (P=0.27). […] Whether AT2 signaling is needed to achieve losartan's full therapeutic benefit was assessed. AT2KO:Fbn1^C1039G/+ mice were treated with losartan from 8 weeks of age and followed by serial echocardiography until they were killed at 9 months of age (FIG. 2C).
All mice were cared for under strict compliance with the Animal Care and Use Committee of the Johns Hopkins University School of Medicine. The Fbn1^C1039G/+ and AT2KO lines were maintained n a pure C57BL/6 background (backcrossed for greater than 9 generations), allowing for valid comparisons. […] Mice that were analyzed for Western Blot analysis had their proximal ascending aortas (root to right brachiocephalic trunk) immediately dissected out, flash frozen in liquid nitrogen and stored at −80d until further processing. Mice that were analyzed for aortic histology had latex injected under low pressure into the left ventricular apex until it was visible in the descending abdominal aorta. Mice that were analyzed for lung histology had their trachea intubated with a 20-gauge blunted needle, and 0.5% agar was infused under a low and constant pressure to gradually inflate the lungs. […]
Mice were started on medication at 8 weeks of age and continued for 7 months. […] Blood pressures were analyzed by taking 20 tail cuff blood pressures per day over 5 days in each mouse to habituate the mice to the tail cuff pressure system, and the blood pressures obtained on the last day were averaged. At least 4 mice for each treatment group were analyzed. […]

Assay [2] deals with Fbn1^C1039G/+ mice. Nature of the assay: Systolic blood pressure by tail cuff. In kind it is in vivo. Conditions: compared to placebo-treated animals, FIG. 8. How it is done:
(§2) Mice were started on medication at 8 weeks of age and continued for 7 months. Losartan was dissolved in drinking water and filtered to reach a concentration of 0.6 g/L, giving an estimated daily dose of 40-60 mg/kg/day. Enalapril was dissolved in drinking water and filtered to reach a final concentration of 0.15 g/L, giving an estimated daily dose of 10-15 mg/kg/day. […] Spironolactone was dissolved in drinking water and filtered to give an estimated dose of 20 mg/kg/day, a dose previously shown to have in-vivo phenotypic benefit in cardiovascular disease states (S. Sakurabayashi-Kitade et al., Atherosclerosis 206, 54 (2009)). Placebo-treated animals received regular drinking water. Blood pressures were analyzed by taking 20 tail cuff blood pressures per day over 5 days in each mouse to habituate the mice to the tail cuff pressure system, and the blood pressures obtained on the last day were averaged. At least 4 mice for each treatment group were analyzed.

For assay [3], the system named is p38. Nature of the assay: Western blot of proximal ascending aorta: p38 activation (Examples 4-5). In kind it is in vivo, mice. The source says: (§3) All mice were cared for under strict compliance with the Animal Care and Use Committee of the Johns Hopkins University School of Medicine. The Fbn1^C1039G/+ and AT2KO lines were maintained n a pure C57BL/6 background (backcrossed for greater than 9 generations), allowing for valid comparisons. In order to further accommodate the potential for temporal- or background-specified variation, all comparisons were made between contemporary littermates when possible. The AT21C0 mice were obtained as a generous gift from Dr. Inagami (T. Ichiki et al., Nature 377, 748 (1995)). The Agtr2 gene resides on the X chromosome and therefore we used either male mice carrying the mutated allele (who are hemizygous) or homozygous females, both of which have been previously shown to be functionally null for the AT2 receptor (T. Ichiki et al., Nature 377, 748 (1995)). Mice were sacrificed with an inhalation overdose of halothane (Sigma-Aldrich, St. Louis). Mice underwent immediate laparotomy, descending abdominal aortic transection, and PBS (pH 7.4) was infused through the right and left ventricles to flush out the blood. Mice that were analyzed for Western Blot analysis had their proximal ascending aortas (root to right brachiocephalic trunk) immediately dissected out, flash frozen in liquid nitrogen and stored at −80d until further processing. Mice that were analyzed for aortic histology had latex injected under low pressure into the left ventricular apex until it was visible in the descending abdominal aorta. Mice that were analyzed for lung histology had their trachea intubated with a 20-gauge blunted needle, and 0.5% agar was infused under a low and constant pressure to gradually inflate the lungs. […]
(§4) Mouse aortic root and ascending aortas (aortic root excluding the aortic valve to origin of right brachiocephalic trunk) were harvested, snap-frozen in liquid nitrogen and stored at −80° C. until processed. […] Equal protein loading of samples was determined by a protein assay (BioRad, CA), and confirmed by probing with antibodies against β-Actin or GAPDH (Sigma, Mo.). […]
Background: In western blotting, separated proteins are transferred to a membrane and probed.

The subject of assay [4] is JNK1. Nature of the assay: Western blot of proximal ascending aorta: JNK1 activation (Examples 4-5). In kind it is in vivo, mice.
Description: as §3, §4

Assay [5] has as its system Smad2. Nature of the assay: Western blot of aortic root and proximal ascending aorta: Smad2 activation (Examples 4-5). In kind it is in vivo, mice. From the text:
(§5) All mice were cared for under strict compliance with the Animal Care and Use Committee of the Johns Hopkins University School of Medicine. The Fbn1^C1039G/+ and AT2KO lines were maintained n a pure C57BL/6 background (backcrossed for greater than 9 generations), allowing for valid comparisons. In order to further accommodate the potential for temporal- or background-specified variation, all comparisons were made between contemporary littermates when possible. The AT21C0 mice were obtained as a generous gift from Dr. Inagami (T. Ichiki et al., Nature 377, 748 (1995)). The Agtr2 gene resides on the X chromosome and therefore we used either male mice carrying the mutated allele (who are hemizygous) or homozygous females, both of which have been previously shown to be functionally null for the AT2 receptor (T. Ichiki et al., Nature 377, 748 (1995)). Mice were sacrificed with an inhalation overdose of halothane (Sigma-Aldrich, St. Louis). Mice underwent immediate laparotomy, descending abdominal aortic transection, and PBS (pH 7.4) was infused through the right and left ventricles to flush out the blood. Mice that were analyzed for Western Blot analysis had their proximal ascending aortas (root to right brachiocephalic trunk) immediately dissected out, flash frozen in liquid nitrogen and stored at −80d until further processing. Mice that were analyzed for aortic histology had latex injected under low pressure into the left ventricular apex until it was visible in the descending abdominal aorta. Mice that were analyzed for lung histology had their trachea intubated with a 20-gauge blunted needle, and 0.5% agar was infused under a low and constant pressure to gradually inflate the lungs. The trachea was then tied-off using vicryl and the needle was removed. Mice were fixed for 24 hours in 10% buffered formalin, after which the heart, aorta and lungs were removed and stored in 70% ethanol.
Mouse aortic root and ascending aortas (aortic root excluding the aortic valve to origin of right brachiocephalic trunk) were harvested, snap-frozen in liquid nitrogen and stored at −80° C. until processed. Protein was extracted using the reagents and protocol from a Total Protein Extraction Kit containing protease inhibitor and Protein Phosphatase Inhibitor Cocktail (Millipore, MA). Aortas were homogenized using a pellet pestle motor (Kimble-Kontes, NJ) as per the extraction kit protocol. […] Equal protein loading of samples was determined by a protein assay (BioRad, CA), and confirmed by probing with antibodies against β-Actin or GAPDH (Sigma, Mo.). […] Blots were then washed in PBS-T, developed using SuperSignalWest HRP substrate (Pierce Scientific, IL), exposed to BioMax Scientific Imaging Film (Sigma, Mo.) and quantified using Imaged analysis software (NIH, MD).

Assay [6] relates to Fbn1^C1039G/+ mice. Nature of the assay: Aortic root growth by echocardiography, 7 months of treatment (Examples 3-5). In kind it is in vivo. As to conditions: for Final absolute aortic root diameter: 7 months of treatment, mean +/- 2 SEM. The method, then:
as §1, §5, §2
Nair hair removal cream was used on all mice the day prior to echocardiograms. All echocardiograms were performed on awake, unsedated mice using the Visualsonics Vevo 660 V1.3.6 imaging system and a 30 MHz transducer. Mice were imaged at baseline, 1 month after treatment and then every two months until the time of sacrifice. […]

[7] abbreviates: treated AT2KO:Fbn1^C1039G/+ versus treated Fbn1^C1039G/+ mice, FIG. 14.

Regarding `CCCCc1nc(Cl)c(CO)n1Cc1ccc(-c2ccccc2-c2nn[nH]n2)cc1` [losartan], the “Aortic root growth over 7 months of treatment” value in assay [1] (AT2KO:Fbn1^C1039G/+ mice) is recorded as “modest reduction in aortic root growth; also recorded: diminished effectiveness”; in assay [6] (versus placebo, drug in drinking water from 8 weeks of age), “significant regression in growth; also recorded: regression in aortic size”. The “Final absolute aortic root diameter” value in assay [1] (AT2KO:Fbn1^C1039G/+ mice, 7 months of treatment, FIG. 2C, mean +/- 2 SEM) is recorded as 2.06+/−0.07 mm; in assay [6] (FIG. 2B) it was 1.96+/−0.09 mm; in assay [6] (FIG. 2C) it was 1.96+/−0.09 mm. In addition, in assay [1] (losartan from 8 weeks to 9 months of age, P<0.001), the “Decrease in aortic root growth in treated AT2KO:Fbn1^C1039G/+ mice relative to that seen in Fbn1^C1039G/+ animals that expressed AT2” value turned out to be 40%. Further, in assay [2], the Systolic blood pressure entry is “equal reduction in systolic blood pressure”. For the same compound, the p38 activation entry was “do not affect p38 activation; also recorded: neither had any effect” in assay [3] (Fbn1^C1039G/+ mice, FIG. 13) and “no significant change; also recorded: no significant difference” in assay [3] (setting [7]). Also, the JNK1 activation result was “small reduction in JNK1 activation; also recorded: modest reduction in JNK1 activation” in assay [4] (Fbn1^C1039G/+ mice, FIG. 13) and “no significant change; also recorded: no significant difference” in assay [4] (setting [7]). Moreover, the Smad2 activation entry is “significantly decreased Smad2 activation” in assay [5] (Fbn1^C1039G/+ mice, FIG. 10B) and “no significant change; also recorded: no significant difference” in assay [5] (setting [7]).
